Source: US7625897B2, “Non-nucleoside reverse transcriptase inhibitors” (Roche Palo Alto LLC, priority 2005, dated 2009)
pEC50, pIC50: −log10 of the molar value. Like-named read-outs stand apart in the source and are kept apart here.

Legend:
HIV = test: Anti-viral Assay (method of Pauwels et al.); assay type: cell-based; settings: Human immunodeficiency virus 1; TABLE 3
Procedure: Anti-viral assays were carried out by the method described by R. E. Pauwels et al. J Virol. Methods 1988 20(4):309-322.

HIV-1 RT = HIV-1 RT (Human immunodeficiency virus type 1 group M subtype B, UniProt P03366); test: HIV Reverse Transcriptase Assay: Inhibitor IC50 determination; assay type: biochemical
Procedure: HIV Reverse Transcriptase Assay: Inhibitor IC50 determination
HIV-1 RT assay was carried out in 96-well Millipore MultiScreen MADVNOB50 plates using purified recombinant enzyme and a poly(rA)/oligo(dT)16 template-primer in a total volume of 50 μL. The assay constituents were 50 mM Tris/HCl, 50 mM NaCl, 1 mM EDTA, 6 mM MgCl2, 5 μM dTTP, 0.15 μCi [^3H] dTTP, 5 μg/ml poly (rA) pre annealed to 2.5 μg/ml oligo (dT)16 and a range of inhibitor concentrations in a final concentration of 10% DMSO. Reactions were initiated by adding 4 nM HIV-1 RT and after incubation at 37° C. for 30 min, they were stopped by the addition of 50 μl ice cold 20% TCA and allowed to precipitate at 4° C. for 30 min. The precipitates were collected by applying vacuum to the plate and sequentially washing with 3×200 μl of 10% TCA and 2×200 μl 70% ethanol. Finally, the plates were dried and radioactivity counted in a Packard TopCounter after the addition of 25 μl scintillation fluid per well. IC50's were calculated by plotting % inhibition versus log10 inhibitor concentrations.

[1] = TABLE 3, read-out: RT inhibition IC50
[2] = TABLE I, purified recombinant enzyme, poly(rA)/oligo(dT)16 template-primer, read-out: HIV-RT IC50 RT
[3] = TABLE II, purified recombinant enzyme, poly(rA)/oligo(dT)16 template-primer, read-out: HIV-RT IC50 RT

SMILES | pEC50 (HIV) | pIC50 (HIV-1 RT; [1]) | pIC50 (HIV-1 RT; [2]) | melting point [°C] | pIC50 (HIV-1 RT; [3])
C[C@H]1NC(Cc2ccc(Cl)c(Oc3cc(C#N)cc(C#N)c3)c2F)=NNC1=O [Compound I-5, 5-[6-Chloro-2-fluoro-3-((R)-5-methyl-6-oxo-1,4,5,6-tetrahydro-[1,2,4]triazin-3-ylmethyl)-phenoxy]-isophthalonitrile] | 7.91 | 7.49 | 7.50 | 81.5 to 100 | 
CC1OC(Cc2ccc(Cl)c(Oc3cc(C#N)cc(C#N)c3)c2F)=NNC1=O (stereo not drawn) [Compound I-9, 5-[6-chloro-2-fluoro-3-(6-methyl-5-oxo-5,6-dihydro-4H-[1,3,4]oxadiazin-2-ylmethyl)-phenoxy]-isophthalonitrile] |  |  | 7.39 | 60.9 to 67.7 | 
CC1CC(Cc2ccc(Cl)c(Oc3cc(Cl)cc(C#N)c3)c2F)=NNC1=O (stereo in doubt) [Compound I-22, 3-chloro-5-[6-chloro-2-fluoro-3-((S)-5-methyl-6-oxo-1,4,5,6-tetrahydro-pyridazin-3-ylmethyl)-phenoxy]-benzonitrile] |  |  | 7.75 | 156.5 to 157.2 | 
C[C@H]1NC(Cc2ccc(Cl)c(Oc3cc(Br)cc(Br)c3)c2F)=NNC1=O [Compound I-3, (R)-3-[4-Chloro-3-(3,5-dibromo-phenoxy)-2-fluoro-benzyl]-5-methyl-4,5-dihydro-1H-[1,2,4]triazin-6-one] |  |  | 7.97 | 75.2 to 79.1 | 
O=c1[nH]nc(Cc2ccc(Cl)c(Oc3cccc(Br)c3)c2)nc1-c1ccccc1 [II-3, 3-[3-(3-Bromo-phenoxy)4-chloro-benzyl]-5-phenyl-1H-[1,2,4]triazin-6-one] |  |  |  | 59.8 to 63.9 | 6.46
C[C@H]1NC(Cc2ccc(Cl)c(Oc3cc(Cl)cc(C#N)c3)c2F)=NNC1=O [Compound I-15, 3-Chloro-5-[6-chloro-2-fluoro-3-((R)-5-methyl-6-oxo-1,4,5,6-tetrahydro-[1,2,4]triazin-3-ylmethyl)-phenoxy]-benzonitrile] | 8.08 | 7.96 | 7.95 | 158.6 to 159.9 | 
Cc1nc(Cc2ccc(Cl)c(Oc3cc(C#N)cc(C#N)c3)c2F)n[nH]c1=O [II-5, 5-[6-chloro-2-fluoro-3-(5-methyl-6-oxo-1,6-dihydro-[1,2,4]triazin-3-ylmethyl)-phenoxy]-isophthalonitrile] |  |  |  | 194.7 to 197.4 | 6.36
